According to US9096560B2, “5-heterocyclylalkyl-3-hydroxy-2-phenylcyclopent-2-enones as herbicides” (Syngenta Limited, priority 2008, dated 2015):

What was measured:
Type in all cases: in vivo
[1] = tested on: Winter Wheat variety 'Hereward' seed treated with cloquintocet mexyl; test: Example C crop damage test on Winter Wheat seed treated with safener cloquintocet mexyl, post-emergence; settings: rate 250 g/ha, seed treated with cloquintocet mexyl 0.5 grams per kilogram of dry seed, evaluated after 13 days
Protocol: Seeds of the Winter Wheat variety ‘Hereward’ were seed treated with a wettable powder formulation of the cereal herbicide safener, cloquintocet mexyl, at a rate of 0.5 grams per kilogram of dry seed prior to the initiation of glasshouse testing. One seed was sown per 1.5 inch plastic pot into a sandy loam soil at a depth of 1 cm, 8 days prior to application of the test compounds and was watered and grown under controlled conditions in a glasshouse (at 24/16° C., day/night; 14 hours light; 65% humidity). The plants were sprayed Post-emergence with an aqueous spray solution derived from the formulation of the technical active ingredient in acetone/water (50:50) solution containing 0.5% Tween 20 (polyoxyethelyene sorbitan monolaurate, CAS RN 9005-64-5). The test plants were then grown in a glasshouse under controlled conditions in a glasshouse (at 24/16° C., day/night; 14 hours light; 65% humidity) and watered twice daily. After 13 days for pre and post-emergence, the test was evaluated (100=total damage to plant; 0=no damage to plant).

[2] = tested on: Winter Wheat variety 'Hereward'; test: Example C crop damage test on Winter Wheat, post-emergence, no safener; settings: Triticum aestivum, 312 h, rate 250 g/ha, evaluated after 13 days, read-out: Winter Wheat (Hereward) damage (100=total damage to plant; 0=no damage to plant)
Protocol: Seeds of the Winter Wheat variety ‘Hereward’ were sown in standard soil in pots. After 8 days cultivation under controlled conditions in a glasshouse (at 24/16° C., day/night; 14 hours light; 65% humidity), the plants were sprayed with an aqueous spray solution derived from the formulation of the technical active ingredient in acetone/water (50:50) solution containing 0.5% Tween 20 (polyoxyethelyene sorbitan monolaurate, CAS RN 9005-64-5). The test plants were then grown in a glasshouse under controlled conditions in a glasshouse (at 24/16° C., day/night; 14 hours light; 65% humidity) and watered twice daily. After 13 days for pre and post-emergence, the test was evaluated (100=total damage to plant; 0=no damage to plant).

[3] = tested on: Lolium perenne (LOLPE); test: Example B pre-emergence herbicidal test, LOLPE; settings: Lolium perenne, 312 h, rate 250 g/ha, evaluated after 13 days, 100=total damage to plant, 0=no damage to plant
In short: (§1)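 After sowing in standard soil, pots spent a day in the glasshouse (24/16° C, 14 h photoperiod, 65% humidity) before spraying with compound in acetone/water 50:50 with 0.5% Tween 20. Watering followed twice a day, and plants were evaluated 13 days on, with 100 meaning complete damage.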

[4] = tested on: Avena fatua (AVEFA); test: Example B post-emergence herbicidal test, AVEFA; settings: Avena fatua, 312 h, rate 250 g/ha, evaluated after 13 days, scale 0-100, read-out: Post-emergence activity AVEFA (100=total damage to plant; 0=no damage to plant)
In short: (§2)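 Foliar application to 8-day-old pot-grown seedlings in a glasshouse (24/16 °C, 14 h photoperiod, 65% humidity). Spray solution was derived from an acetone/water (50:50) formulation with 0.5% Tween 20. Injury was assessed 13 days later on a 0–100 scale.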

[5] = tested on: Echinochloa crus-galli (ECHCG); test: Example B pre-emergence herbicidal test, ECHCG; settings: Echinochloa crus-galli, 312 h, rate 250 g/ha, evaluated after 13 days, 100=total damage to plant, 0=no damage to plant
In short: as §1

[6] = tested on: Echinochloa crus-galli (ECHCG); test: Example B post-emergence herbicidal test, ECHCG; settings: Echinochloa crus-galli, 312 h, rate 250 g/ha, evaluated after 13 days, scale 0-100, read-out: Post-emergence activity ECHCG (100=total damage to plant; 0=no damage to plant)
In short: as §2

[7] = tested on: Lolium perenne (LOLPE); test: Example B post-emergence herbicidal test, LOLPE; settings: Lolium perenne, 312 h, rate 250 g/ha, evaluated after 13 days, scale 0-100, read-out: Post-emergence activity LOLPE (100=total damage to plant; 0=no damage to plant)
In short: as §2

[8] = tested on: Alopecurus myosuroides (ALOMY); test: Example B pre-emergence herbicidal test, ALOMY; settings: Alopecurus myosuroides, 312 h, rate 250 g/ha, evaluated after 13 days, 100=total damage to plant, 0=no damage to plant
In short: as §1

[9] = tested on: Avena fatua (AVEFA); test: Example B pre-emergence herbicidal test, AVEFA; settings: Avena fatua, 312 h, rate 250 g/ha, evaluated after 13 days, 100=total damage to plant, 0=no damage to plant
In short: as §1

[10] = tested on: Alopecurus myosuroides (ALOMY); test: Example B post-emergence herbicidal test, ALOMY; settings: Alopecurus myosuroides, 312 h, rate 250 g/ha, evaluated after 13 days, scale 0-100, read-out: Post-emergence activity ALOMY (100=total damage to plant; 0=no damage to plant)
In short: as §2

| SMILES | Winter Wheat (Hereward) + cloquintocet mexyl damage (100=total damage to plant; 0=no damage to plant) [1] | crop damage to winter wheat at 250 g/ha [2] [%] | pest or weed control at 250 g/ha [3] [%] | pest or weed control at 250 g/ha [4] [%] | pest or weed control at 250 g/ha [5] [%] | pest or weed control at 250 g/ha [6] [%] | pest or weed control at 250 g/ha [7] [%] | pest or weed control at 250 g/ha [8] [%] | pest or weed control at 250 g/ha [9] [%] | pest or weed control at 250 g/ha [10] [%] |
| --- | --- | --- | --- | --- | --- | --- | --- | --- | --- | --- |
| Cc1cc(C)c(C2=C(OC(=O)C(C)(C)C)CC(CC3CCOC3)C2=O)c(C)c1 (stereo not drawn) [Compound P7] | 0 | 70 | 100 | 80 | 100 | 90 | 100 | 100 | 90 | 100 |
| Cc1cc(C)c(C2C(=O)C/C(=C\C3CCCOC3)C2=O)c(C)c1 (stereo not drawn) [Compound T14] | 60 | 80 | 100 | 100 | 100 | 100 | 100 | 100 | 100 | 100 |
| Cc1cc(C)c(C2=C(OC(=O)C(C)C)CC(CC3CCOC3)C2=O)c(C)c1 (stereo not drawn) [Compound P13] | 10 | 70 | 100 | 90 | 100 | 100 | 100 | 100 | 90 | 90 |
| Cc1cc(-c2ccccc2)cc(C)c1C1C(=O)C/C(=C\C2CCOCC2)C1=O (stereo not drawn) [Compound T66] | 20 | 50 | 80 | 90 | 100 | 100 | 60 | 90 | 80 | 90 |
| Cc1cc(C)c(C2C(=O)CC(CC3CCN(C(=O)c4ccc(F)cc4)CC3)C2=O)c(C)c1 (stereo not drawn) [Compound T75] | 50 | 60 | 80 | 100 | 70 | 90 | 100 | 30 | 70 | 90 |
| Cc1cc(-c2ccc(Cl)cc2)cc(C)c1C1C(=O)CC(CC2CCOCC2)C1=O (stereo not drawn) [Compound T64] | 70 | 80 | 100 | 100 | 100 | 100 | 90 | 50 | 90 | 90 |
| CON1CCC(CC2CC(OC(=O)OC(C)C)=C(c3c(C)cc(C)cc3C)C2=O)CC1 (stereo not drawn) [Compound P56] | 60 | 90 | 100 | 100 | 100 | 90 | 100 | 100 | 90 | 90 |
| Cc1cc(C)c(C2C(=O)C/C(=C\C3CCOC(C)(C)C3)C2=O)c(C)c1 (stereo not drawn) [Compound T37] | 70 | 80 | 100 | 100 | 100 | 100 | 100 | 100 | 90 | 90 |
| Cc1cc(C)c(C2=C(OC(=O)c3ccccc3)CC(CC3CCOC3)C2=O)c(C)c1 (stereo not drawn) [Compound P17] | 0 | 70 | 100 | 90 | 90 | 100 | 100 | 100 | 90 | 100 |
| Cc1cc(C)c(C2C(=O)C/C(=C\C3CCS(=O)(=O)CC3)C2=O)c(C)c1 (stereo not drawn) [Compound T10] | 20 | 60 | 90 | 80 | 70 | 80 | 70 | 70 | 40 | 70 |
| CCCC(=O)N1CCC(CC2CC(=O)C(c3c(C)cc(C)cc3C)C2=O)CC1 (stereo not drawn) [Compound T84] | 60 | 70 | 90 | 100 | 60 | 90 | 100 | 50 | 50 | 90 |
| Cc1cc(-c2ccc(Cl)cc2)cc(C)c1C1C(=O)C/C(=C\C2CCOCC2)C1=O (stereo not drawn) [Compound T62] | 70 | 80 | 100 | 100 | 100 | 100 | 90 | 80 | 70 | 90 |
